Experimental data published in paper PMC12203311, “Design, synthesis, in silico and in vitro evaluation of pyrrole–indole hybrids as dual tubulin and aromatase inhibitors with potent anticancer activities” (RSC Advances, 2025).

Tests used:
CCRF-CEM = test: NCI60 five-dose screen; format: cell-based; settings: Homo sapiens, leukemia; for CC50: read-out: LC50 (the source's name)
HL-60 (TB) = test: NCI60 five-dose screen; format: cell-based; settings: Homo sapiens, leukemia; for CC50: read-out: LC50 (the source's name)
K-562 = test: NCI60 five-dose screen; format: cell-based; settings: Homo sapiens, K562, K-562, leukemia; for CC50: read-out: LC50 (the source's name)
RPMI-8226 = test: NCI60 five-dose screen; format: cell-based; settings: Homo sapiens, RPMI-8226, leukemia; for CC50: read-out: LC50 (the source's name)
NCI-H23 = test: NCI60 five-dose screen; format: cell-based; settings: Homo sapiens, NCI-H23, NSC lung cancer; for CC50: read-out: LC50 (the source's name)
HCC-2998 = test: NCI60 five-dose screen; format: cell-based; settings: Homo sapiens, HCC-2998, colon cancer; for CC50: read-out: LC50 (the source's name)
HCT-116 = test: NCI60 five-dose screen; format: cell-based; settings: Homo sapiens, HCT-116, colon cancer; for CC50: read-out: LC50 (the source's name)
KM12 = test: NCI60 five-dose screen; format: cell-based; settings: Homo sapiens, KM12, colon cancer; for CC50: read-out: LC50 (the source's name)
SW-620 = test: NCI60 five-dose screen; format: cell-based; settings: Homo sapiens, SW-620, colon cancer; for CC50: read-out: LC50 (the source's name)
SF-539 = test: NCI60 five-dose screen; format: cell-based; settings: Homo sapiens, SF-539, CNS cancer; for CC50: read-out: LC50 (the source's name)
SNB-75 = test: NCI60 five-dose screen; format: cell-based; settings: Homo sapiens, SNB-75, CNS cancer; for CC50: read-out: LC50 (the source's name)
U251 = test: NCI60 five-dose screen; format: cell-based; settings: Homo sapiens, U-251, U251, CNS cancer; for CC50: read-out: LC50 (the source's name)
MALME-3M = test: NCI60 five-dose screen; format: cell-based; settings: Homo sapiens, melanoma; for CC50: read-out: LC50 (the source's name)
MDA-MB-435 = test: NCI60 five-dose screen; format: cell-based, human; settings: Homo sapiens; for CC50: MDA-MB-435, MDA-MB-435, melanoma, read-out: LC50 (the source's name); for GI50: MDA-MB-435, melanoma
SK-MEL-2 = test: NCI60 five-dose screen; format: cell-based; settings: Homo sapiens, SK-MEL-2, melanoma; for CC50: read-out: LC50 (the source's name)
SK-MEL-28 = test: NCI60 five-dose screen; format: cell-based; settings: Homo sapiens, SK-MEL-28, melanoma; for CC50: read-out: LC50 (the source's name)
SK-MEL-5 = test: NCI60 five-dose screen; format: cell-based, human; settings: Homo sapiens; for CC50: SK-MEL-5, SK-MEL-5, melanoma, read-out: LC50 (the source's name); for GI50: SK-MEL-5, melanoma
UACC-62 = test: NCI60 five-dose screen; format: cell-based; settings: Homo sapiens, UACC-62, melanoma; for CC50: read-out: LC50 (the source's name)
IGROV1 = test: NCI60 five-dose screen; format: cell-based; settings: Homo sapiens, IGROV-1; IGROV1, ovarian cancer
OVCAR-3 = test: NCI60 five-dose screen; format: cell-based; settings: Homo sapiens, OVCAR-3, ovarian cancer; for CC50: read-out: LC50 (the source's name)
OVCAR-5 = test: NCI60 five-dose screen; format: cell-based; settings: Homo sapiens, OVCAR-5, ovarian cancer; for CC50: read-out: LC50 (the source's name)
SK-OV-3 = test: NCI60 five-dose screen; format: cell-based; settings: Homo sapiens, SK-OV-3, ovarian cancer; for CC50: read-out: LC50 (the source's name)
A498 = test: NCI60 five-dose screen; format: cell-based; settings: Homo sapiens, A498, renal cancer; for CC50: read-out: LC50 (the source's name)
RXF 393 = test: NCI60 five-dose screen; format: cell-based; settings: Homo sapiens, RXF 393, renal cancer; for CC50: read-out: LC50 (the source's name)
TK-10 = test: NCI60 five-dose screen; format: cell-based; settings: Homo sapiens, TK-10, renal cancer; for CC50: read-out: LC50 (the source's name)
MCF7 = test: NCI60 five-dose screen; format: cell-based; settings: Homo sapiens, MCF7, breast cancer; for CC50: read-out: LC50 (the source's name)
MDA-MB-231/ATCC = test: NCI60 five-dose screen; format: cell-based; settings: Homo sapiens, breast cancer; for CC50: read-out: LC50 (the source's name)
HS 578T = test: NCI60 five-dose screen; format: cell-based; settings: Homo sapiens, breast cancer; for CC50: read-out: LC50 (the source's name)
T-47D = test: NCI60 five-dose screen; format: cell-based; settings: Homo sapiens, T47D, breast cancer; for CC50: read-out: LC50 (the source's name)
[1] = system: T47D breast cancer cell line; test: Cytotoxicity MTT assay, T47D; format: cell-based, human
How it was run: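 Read-out is absorbance at 570 nm of DMSO-solubilised formazan after a 3-hour incubation with 0.5 mg mL^−1 MTT. Percent viability is relative to vehicle (DMSO).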

For `O=C(N/N=C/c1cc([N+](=O)[O-])c[nH]1)c1[nH]c2ccc(Br)cc2c1-c1ccccc1` [Derivative 3q, (E)-5-Bromo-N′-((4-nitro-1H-pyrrol-2-yl)methylene)-3-phenyl-1H-indole-2-carbohydrazide], the GI50 (CCRF-CEM) was 0.799 µM, the CC50 (CCRF-CEM) was greater than 100 µM and the GI50 (HL-60 (TB)) was 0.633 µM. It also gave a CC50 (HL-60 (TB)) greater than 100 µM, a GI50 (K-562) of 0.387 µM and a CC50 (K-562) greater than 100 µM. For the same molecule, the GI50 (RPMI-8226) was 3.71 µM, the CC50 (RPMI-8226) was greater than 100 µM and the GI50 (NCI-H23) was 2.57 µM. For the same molecule, the CC50 (NCI-H23) was greater than 100 µM, the GI50 (HCC-2998) was 3.66 µM and the CC50 (HCC-2998) was greater than 100 µM. For the same molecule, the GI50 (HCT-116) was 0.491 µM, the CC50 (HCT-116) was greater than 100 µM and the GI50 (KM12) was 1.39 µM. It also gave a CC50 (KM12) greater than 100 µM, a GI50 (SW-620) of 0.38 µM and a CC50 (SW-620) greater than 100 µM. For the same molecule, the GI50 (SF-539) was 0.822 µM, the CC50 (SF-539) was greater than 100 µM and the GI50 (SNB-75) was 0.242 µM. For the same molecule, the CC50 (SNB-75) was greater than 100 µM, the GI50 (U251) was 0.574 µM and the CC50 (U251) was 66.8 µM. The GI50 (MALME-3M) was 0.83 µM, the CC50 (MALME-3M) was greater than 100 µM and the CC50 (MDA-MB-435) was 8.78 µM. It also gave a GI50 (MDA-MB-435) of 0.226 µM, a GI50 (SK-MEL-2) of 1.3 µM and a CC50 (SK-MEL-2) greater than 100 µM. The GI50 (SK-MEL-28) was 0.89 µM, the CC50 (SK-MEL-28) was greater than 100 µM and the CC50 (SK-MEL-5) was 69.9 µM. The GI50 (SK-MEL-5) was 0.671 µM, the GI50 (UACC-62) was 0.538 µM and the CC50 (UACC-62) was greater than 100 µM. For the same molecule, the GI50 (IGROV1) was 2.06 µM, the GI50 (OVCAR-3) was 0.397 µM and the CC50 (OVCAR-3) was greater than 100 µM. It also gave a GI50 (OVCAR-5) of 5.37 µM, a CC50 (OVCAR-5) greater than 100 µM and a GI50 (SK-OV-3) of 3.14 µM. The CC50 (SK-OV-3) was greater than 100 µM, the GI50 (A498) was 10.7 µM and the CC50 (A498) was greater than 100 µM. For the same molecule, the GI50 (RXF 393) was 0.734 µM, the CC50 (RXF 393) was greater than 100 µM and the GI50 (TK-10) was 76 µM. The CC50 (TK-10) was greater than 100 µM, the GI50 (MCF7) was 0.354 µM and the CC50 (MCF7) was greater than 100 µM. It also gave a GI50 (MDA-MB-231/ATCC) of 17.4 µM, a CC50 (MDA-MB-231/ATCC) greater than 100 µM and a GI50 (HS 578T) of 0.486 µM. The CC50 (HS 578T) was greater than 100 µM, the GI50 (T-47D) was 2.21 µM and the CC50 (T-47D) was greater than 100 µM. The “activity against T47D in two-dose screen” value ([1]; 10 µM and 50 µM) was “weak activity”.

`Cc1[nH]c(/C=N/NC(=O)c2[nH]c3ccc(Br)cc3c2-c2ccccc2)c(C)c1[N+](=O)[O-]` [Derivative 3r, (E)-5-Bromo-N′-((3,5-dimethyl-4-nitro-1H-pyrrol-2-yl)methylene)-3-phenyl-1H-indole-2-carbohydrazide] gave a GI50 (CCRF-CEM) of 1.89 µM, a CC50 (CCRF-CEM) greater than 100 µM and a GI50 (HL-60 (TB)) of 2.31 µM. For the same molecule, the CC50 (HL-60 (TB)) was greater than 100 µM, the GI50 (K-562) was 2.69 µM and the CC50 (K-562) was greater than 100 µM. For the same molecule, the GI50 (RPMI-8226) was 2.7 µM, the CC50 (RPMI-8226) was greater than 100 µM and the GI50 (NCI-H23) was 2.46 µM. The CC50 (NCI-H23) was 26.3 µM, the GI50 (HCC-2998) was 2.41 µM and the CC50 (HCC-2998) was 25.4 µM. For the same molecule, the GI50 (HCT-116) was 1.98 µM, the CC50 (HCT-116) was 10.4 µM and the GI50 (KM12) was 1.92 µM. The CC50 (KM12) was 11.6 µM, the GI50 (SW-620) was 2.06 µM and the CC50 (SW-620) was 19.1 µM. The GI50 (SF-539) was 3.51 µM, the CC50 (SF-539) was 35.7 µM and the GI50 (SNB-75) was 2.19 µM. For the same molecule, the CC50 (SNB-75) was 21.5 µM, the GI50 (U251) was 1.85 µM and the CC50 (U251) was 13.4 µM. The GI50 (MALME-3M) was 1.99 µM, the CC50 (MALME-3M) was 28.5 µM and the CC50 (MDA-MB-435) was 17.9 µM. The GI50 (MDA-MB-435) was 1.77 µM, the GI50 (SK-MEL-2) was 2.11 µM and the CC50 (SK-MEL-2) was 22.6 µM. It also gave a GI50 (SK-MEL-28) of 3.56 µM, a CC50 (SK-MEL-28) of 38.7 µM and a CC50 (SK-MEL-5) of 5.87 µM. It also gave a GI50 (SK-MEL-5) of 1.5 µM, a GI50 (UACC-62) of 2.9 µM and a CC50 (UACC-62) of 37.5 µM. The GI50 (IGROV1) was 3.83 µM, the GI50 (OVCAR-3) was 1.77 µM and the CC50 (OVCAR-3) was 10.4 µM. It also gave a GI50 (OVCAR-5) of 3.53 µM, a CC50 (OVCAR-5) of 41.5 µM and a GI50 (SK-OV-3) of 3.23 µM. For the same molecule, the CC50 (SK-OV-3) was 39.2 µM, the GI50 (A498) was 2.35 µM and the CC50 (A498) was 27.6 µM. The GI50 (RXF 393) was 1.7 µM, the CC50 (RXF 393) was 15.9 µM and the GI50 (TK-10) was 5.1 µM. For the same molecule, the CC50 (TK-10) was 41.2 µM, the GI50 (MCF7) was 2.57 µM and the CC50 (MCF7) was 29.9 µM. The GI50 (MDA-MB-231/ATCC) was 3.56 µM, the CC50 (MDA-MB-231/ATCC) was 40.5 µM and the GI50 (HS 578T) was 2.43 µM. The CC50 (HS 578T) was 97.2 µM, the GI50 (T-47D) was 2.51 µM and the CC50 (T-47D) was 33.5 µM. The IC50 ([1]; Homo sapiens, T47D, MTT, 48 hours) was 12.3 ± 0.3 µM.
